Laboratory results published in ChEMBL document CHEMBL3352715, “Synthesis of new verapamil analogues and their evaluation in combination with rifampicin against Mycobacterium tuberculosis and molecular docking studies in the binding site of efflux protein Rv1258c” (2014).

Key:
[1] = tested on: Mycobacterium tuberculosis; experiment: Inhibition of multidrug resistance efflux pump Rv1258c in Mycobacterium tuberculosis H37Rv assessed as reduction in rifampicin MIC99 by MABA method
[2] = tested on: Mycobacterium tuberculosis; experiment: Inhibition of multidrug resistance efflux pump Rv1258c in Mycobacterium tuberculosis H37Rv assessed as potentiation of rifampicin-induced antimycobacterial activity by MABA method based Chequerboard synergy assay
[3] = tested on: Mycobacterium tuberculosis; experiment: Inhibition of multidrug resistance efflux pump Rv1258c in Mycobacterium tuberculosis H37Rv assessed as rifampicin MIC99 by MABA method

Compound | fold change (FC) [1] | fractional inhibitory concentration index (FICI) [2] | MIC99 [3] [nM]
COc1ccc(C(C#N)(CCCN2CCC(O)(c3ccccc3)CC2)C(C)C)cc1OC (centres undefined) | 2 | 1 | 4.2
COc1ccc(N(C)CCCC(C#N)(c2ccc(OC)c(OC)c2)C(C)C)cc1OC (centres undefined) | – | – | 8.3
COc1ccc(CCN(CCCC(C#N)(c2ccc(OC)c(OC)c2)C(C)C)Cc2ccccc2)cc1OC (centres undefined) | 4 | 0.3 | 2.1
COc1ccc(C(C#N)(CCCN2CCN(c3ccccc3)CC2)C(C)C)cc1OC (centres undefined) | 2 | 0.75 | 4.2
COc1ccc(CN(C)CCCC(C#N)(c2ccc(OC)c(OC)c2)C(C)C)cc1OC (centres undefined) | – | – | 8.3
COc1ccc(CCN(C)CCCC(C#N)(c2ccc(OC)c(OC)c2)C2CCCC2)cc1OC (centres undefined) | 2 | 1 | 4.2
COc1ccc(C(C#N)(CCCN2CCCCC2)C(C)C)cc1OC (centres undefined) | 2 | 1 | 4.2
COc1ccc(CCN(C)CCCC(C#N)(c2ccc(OC)c(OC)c2)C2CCCCC2)cc1OC (centres undefined) | 4 | 1.25 | 2.1
COc1ccc(C(C#N)(CCCN2CCC(N3CCCCC3)CC2)C(C)C)cc1OC (centres undefined) | 2 | 1 | 4.2
COc1ccc(CCN(C)CCCC(C)(C#N)c2ccc(OC)c(OC)c2)cc1OC (centres undefined) | 2 | 1 | 4.2
CCCN(CCCC(C#N)(c1ccc(OC)c(OC)c1)C(C)C)CCc1ccc(OC)c(OC)c1 (centres undefined) | – | 0.78 | 8.3
CCCC(C#N)(CCCN(C)CCc1ccc(OC)c(OC)c1)c1ccc(OC)c(OC)c1 (centres undefined) | 4 | 0.75 | 2.1
COc1ccc(CCN(C)CCCC(C#N)c2ccc(OC)c(OC)c2)cc1OC (centres undefined) | 2 | 1 | 4.2
CCC(C#N)(CCCN(C)CCc1ccc(OC)c(OC)c1)c1ccc(OC)c(OC)c1 (centres undefined) | 4 | 0.75 | 2.1
COc1ccc(C(C#N)(CCCN2CCC(O)CC2)C(C)C)cc1OC (centres undefined) | – | 1.5 | 8.3
COc1ccc(CCNCCCC(C#N)(c2ccc(OC)c(OC)c2)C(C)C)cc1OC (centres undefined) [NORVERAPAMIL] | 2 | 0.56 | 4.2
COc1ccc(C(C#N)(CCCN2CCN(c3ccccc3F)CC2)C(C)C)cc1OC (centres undefined) | – | 1.5 | 8.3
COc1ccc(C(C#N)(CCCN2CCOCC2)C(C)C)cc1OC (centres undefined) | – | 1.5 | 8.3
COc1ccc(CCN(CCCC(C#N)(c2ccc(OC)c(OC)c2)C(C)C)C2CC2)cc1OC (centres undefined) | 2 | 0.75 | 4.2
COc1ccc(C(C#N)(CCCN2CCN(c3ccccn3)CC2)C(C)C)cc1OC (centres undefined) | 4 | 0.75 | 2.1
CCN(CCCC(C#N)(c1ccc(OC)c(OC)c1)C(C)C)CCc1ccc(OC)c(OC)c1 (centres undefined) | – | 1 | 8.3
